In US20260217677A1, “ORGANIC COMPOUNDS AS NLRP3 INHIBITORS” (KODIAK SCIENCES, INC., priority 2023, published 2026):
Where two headings read alike, the source gives them in different places.

Tested on: IL-1β release in U937 cells after NLRP3 activation
Test: IL-1β release inhibition in U937 cells (MSD V-Plex)
Settings: Homo sapiens, PMA-differentiated U937 cells, 1 μg/mL LPS 3 h, compound 30 min, 10 mM nigericin 1 h
[1] = U-937, read-out: IL-1β IC50, Table 3
[2] = U-937, read-out: IL-1β IC50, Table 4

Row | Structure (SMILES) | IC50 [1] | IC50 [2]
1 | Cc1cc(N[C@@H]2CCCN(CC(=O)N3CC4(CC(O)C4)C3)C2)nnc1-c1ccc(C(F)(F)F)cc1O [Compound 16, (R)-2-(3-((6-(2-Hydroxy-4-(trifluoromethyl)phenyl)-5-methylpyridazin-3-yl)amino)piperidin-1-yl)-1-(6-hydroxy-2-azaspiro[3.3]heptan-2-yl)ethan-1-one] | 5 to 50 nM | –
2 | Cc1cc(N[C@@H]2CCCN(CC(=O)NC3CCNCC3)C2)nnc1-c1ccc(C(F)(F)F)cc1O [Example 95, (R)-2-(3-((6-(2-Hydroxy-4-(trifluoromethyl)phenyl)-5-methylpyridazin-3-yl)amino)piperidin-1-yl)-N-(piperidin-4-yl)acetamide] | – | 50 to 500 nM
3 | Cc1cc(C(F)(F)F)cc(O)c1-c1ccc(N[C@@H]2CCCN(CCN3CCC(O)CC3)C2)nn1 [Compound 6, (R)-1-(2-(3-((6-(2-Hydroxy-6-methyl-4-(trifluoromethyl)phenyl)pyridazin-3-yl)amino)piperidin-1-yl)ethyl)piperidin-4-ol] | 50 to 500 nM | –
4 | Cc1cc(N[C@@H]2CCCN(CCC(=O)N3CCC(O)CC3)C2)nnc1-c1ccc(C(F)(F)F)cc1O [Example 46, 3-[(3R)-3-({6-[2-Hydroxy-4-(trifluoromethyl)phenyl]-5-methylpyridazin-3-yl}amino)piperidin-1-yl]-1-(4-hydroxypiperidin-1-yl) propan-1-one] | < 5 nM | –
5 | Cc1cc(N[C@@H]2CCCN(CCN3CC(O)C(F)C3)C2)nnc1-c1ccc(C(F)(F)F)cc1O (stereo partly drawn) [Compound 5, 4-Fluoro-1-(2-((R)-3-((6-(2-hydroxy-4-(trifluoromethyl)phenyl)-5-methylpyridazin-3-yl)amino)piperidin-1-yl)ethyl)pyrrolidin-3-ol] | < 5 nM | –
6 | Cc1cc(N[C@@H]2CCCN(CC(=O)N3CCC(C)(O)CC3)C2)nnc1-c1ccc(C(F)(F)F)cc1O [Example 55, (R)-2-(3-((6-(2-Hydroxy-4-(trifluoromethyl)phenyl)-5-methylpyridazin-3-yl)amino)piperidin-1-yl)-1-(4-hydroxy-4-methylpiperidin-1-yl)ethan-1-one] | < 5 nM | –
7 | Cc1cc(N[C@@H]2CCCN(CCN3CCNCC3)C2)nnc1-c1ccc(C(F)(F)F)cc1O [Example 104, (R)-2-(4-Methyl-6-((1-(2-(piperazin-1-yl)ethyl)piperidin-3-yl)amino)pyridazin-3-yl)-5-(trifluoromethyl)phenol] | – | 5 to 50 nM
8 | Cc1cc(N[C@@H]2CCCN(CC(=O)N3CCC4(CC3)CNC4)C2)nnc1-c1ccc(C(F)(F)F)cc1O [Example 102, (R)-2-(3-((6-(2-Hydroxy-4-(trifluoromethyl)phenyl)-5-methylpyridazin-3-yl)amino)piperidin-1-yl)-1-(2,7-diazaspiro[3.5]nonan-7-yl)ethan-1-one] | – | 50 to 500 nM
9 | Cc1cc(N[C@@H]2CCCN(CC(=O)N3CCN[C@H](C)C3)C2)nnc1-c1ccc(C(F)(F)F)cc1O [Example 110, 2-((R)-3-((6-(2-Hydroxy-4-(trifluoromethyl)phenyl)-5-methylpyridazin-3-yl)amino)piperidin-1-yl)-1-((R)-3-methylpiperazin-1-yl)ethan-1-one] | – | 5 to 50 nM
10 | Cc1cc(N[C@@H]2CCCN(CCN)C2)nnc1-c1ccc(C(F)(F)F)cc1O [Example 78, (R)-2-(6-((1-(2-Aminoethyl)piperidin-3-yl)amino)-4-methylpyridazin-3-yl)-5-(trifluoromethyl)phenol] | – | < 5 nM
11 | Cc1cc(N[C@@H]2CCCN(C(=O)CN)C2)nnc1-c1ccc(C(F)(F)F)cc1O [Example 92, (R)-2-Amino-1-(3-((6-(2-hydroxy-4-(trifluoromethyl)phenyl)-5-methylpyridazin-3-yl)amino)piperidin-1-yl)ethan-1-one] | – | 5 to 50 nM
12 | Cc1cc(N[C@@H]2CCCN(C(=O)C(F)(F)CN)C2)nnc1-c1ccc(C(F)(F)F)cc1O [Example 96, (R)-3-Amino-2,2-difluoro-1-(3-((6-(2-hydroxy-4-(trifluoromethyl)phenyl)-5-methylpyridazin-3-yl)amino)piperidin-1-yl) propan-1-one] | – | 5 to 50 nM
13 | O=C(CN1CCC[C@@H](Nc2nnc(-c3ccc4sccc4c3O)c3c2COC3)C1)N1CCC(O)CC1 [Example 56, (R)-2-(3-((4-(4-Hydroxybenzo[b]thiophen-5-yl)-5,7-dihydrofuro[3,4-d]pyridazin-1-yl)amino)piperidin-1-yl)-1-(4-hydroxypiperidin-1-yl)ethan-1-one] | 5 to 50 nM | –
14 | Cc1c(N[C@@H]2CCCN(CC(=O)N3CCC(O)CC3)C2)nnc(-c2ccc3sccc3c2O)c1C [Example 50, (R)-2-(3-((6-(4-Hydroxybenzo[b]thiophen-5-yl)-4,5-dimethylpyridazin-3-yl)amino)piperidin-1-yl)-1-(4-hydroxypiperidin-1-yl)ethan-1-one] | < 5 nM | –

Results, then the compound that gave them:

Row | IC50 [1] | IC50 [2] | Structure (SMILES)
15 | < 5 nM | – | O=C(CN1CCC[C@@H](Nc2nnc(-c3ccc(C(F)(F)F)cc3O)c3ccccc23)C1)N1CCC(O)CC1 [Example 33, (R)-2-(3-((4-(2-Hydroxy-4-(trifluoromethyl)phenyl)phthalazin-1-yl)amino)piperidin-1-yl)-1-(4-hydroxypiperidin-1-yl)ethan-1-one]
16 | < 5 nM | – | Cc1cc(N[C@@H]2CCCN(CC(=O)N3CC[C@@H](O)C3)C2)nnc1-c1ccc(C(F)(F)F)cc1O [Compound 12, 2-((R)-3-((6-(2-Hydroxy-4-(trifluoromethyl)phenyl)-5-methylpyridazin-3-yl)amino)piperidin-1-yl)-1-((R)-3-hydroxypyrrolidin-1-yl)ethan-1-one]
17 | > 500 nM | – | Cc1cc(N[C@@H]2CCCN(CCN3CC[C@@H](O)C3)C2)nnc1-c1ccc(C(F)(F)F)cc1O [Compound 3, (R)-1-(2-((R)-3-((6-(2-Hydroxy-4-(trifluoromethyl)phenyl)-5-methylpyridazin-3-yl)amino)piperidin-1-yl)ethyl)pyrrolidin-3-ol]
18 | 5 to 50 nM | – | O=C(CN1CCC[C@@H](Nc2nnc(-c3ccc(C(F)(F)F)cc3O)c3c2COC3)C1)N1C[C@H](O)[C@@H](F)C1 [Example 28, 1-((3S,4S)-3-Fluoro-4-hydroxypyrrolidin-1-yl)-2-((R)-3-((4-(2-hydroxy-4-(trifluoromethyl)phenyl)-5,7-dihydrofuro[3,4-d]pyridazin-1-yl)amino)piperidin-1-yl)ethan-1-one]
19 | 50 to 500 nM | – | CN1Cc2c(N[C@@H]3CCCN(CC(=O)N4CCC(O)CC4)C3)nnc(-c3ccc(C(F)(F)F)cc3O)c2C1 [Example 60, (R)-2-(3-((4-(2-Hydroxy-4-(trifluoromethyl)phenyl)-6-methyl-6,7-dihydro-5H-pyrrolo[3,4-d]pyridazin-1-yl)amino)piperidin-1-yl)-1-(4-hydroxypiperidin-1-yl)ethan-1-one]
20 | < 5 nM | – | Oc1cc(C(F)(F)F)ccc1-c1nnc(N[C@@H]2CCCN(C[C@H]3C[C@H](O)C3)C2)c2c1COC2 [Example 59, 2-(4-(((R)-1-(((1r,3R)-3-Hydroxycyclobutyl)methyl)piperidin-3-yl)amino)-5,7-dihydrofuro[3,4-d]pyridazin-1-yl)-5-(trifluoromethyl)phenol]
21 | 5 to 50 nM | – | O=C(CN1CCC[C@@H](Nc2nnc(-c3ccc(C(F)(F)F)cc3O)c3c2COC3)C1)N1CC2(CCC(O)CC2)C1 [Compound 25, (R)-2-(3-((4-(2-Hydroxy-4-(trifluoromethyl)phenyl)-5,7-dihydrofuro[3,4-d]pyridazin-1-yl)amino)piperidin-1-yl)-1-(7-hydroxy-2-azaspiro[3.5]nonan-2-yl)ethan-1-one]
22 | > 500 nM | – | Cc1cc(N[C@@H]2CCCN(CCN3CC[C@H](O)C3)C2)nnc1-c1ccc(C(F)(F)F)cc1O [Compound 4, (S)-1-(2-((R)-3-((6-(2-Hydroxy-4-(trifluoromethyl)phenyl)-5-methylpyridazin-3-yl)amino)piperidin-1-yl)ethyl)pyrrolidin-3-ol]
23 | 5 to 50 nM | – | Cc1c(N[C@@H]2CCCN(CC(=O)N3CCC(O)CC3)C2)nnc(-c2ccc(C(F)(F)F)cc2O)c1C [Example 30, (R)-2-(3-((6-(2-Hydroxy-4-(trifluoromethyl)phenyl)-4,5-dimethylpyridazin-3-yl)amino)piperidin-1-yl)-1-(4-hydroxypiperidin-1-yl)ethan-1-one]
24 | 5 to 50 nM | – | Cc1cc(N[C@@H]2CCCN(CCN3CC(O)C3)C2)nnc1-c1ccc(C(F)(F)F)cc1O [Example 37, (R)-1-(2-(3-((6-(2-Hydroxy-4-(trifluoromethyl)phenyl)-5-methylpyridazin-3-yl)amino)piperidin-1-yl)ethyl)azetidin-3-ol]
25 | – | 5 to 50 nM | Cc1cc(N[C@@H]2CCCN(C3CC(N)C3)C2)nnc1-c1ccc(C(F)(F)F)cc1O (stereo partly drawn) [Example 89, (R)-2-(6-((1-(3-Aminocyclobutyl)piperidin-3-yl)amino)-4-methylpyridazin-3-yl)-5-(trifluoromethyl)phenol]
26 | > 500 nM | – | Cc1cc(N[C@@H]2CCCN(CCN3CCC(O)C3)C2)nnc1-c1ccc(C(F)(F)F)cc1O (stereo partly drawn) [Compound 2, 1-(2-((R)-3-((6-(2-Hydroxy-4-(trifluoromethyl)phenyl)-5-methylpyridazin-3-yl)amino)piperidin-1-yl)ethyl)pyrrolidin-3-ol]
27 | < 5 nM | – | Cc1cc(N[C@@H]2CCCN(CC(=O)N3CC[C@H](O)C3)C2)nnc1-c1ccc(C(F)(F)F)cc1O [Compound 11, 2-((R)-3-((6-(2-Hydroxy-4-(trifluoromethyl)phenyl)-5-methylpyridazin-3-yl)amino)piperidin-1-yl)-1-((S)-3-hydroxypyrrolidin-1-yl)ethan-1-one]
28 | 5 to 50 nM | – | Cc1cc(N[C@@H]2CCCN(CC(=O)N3CC(O)C3)C2)nnc1-c1ccc(C(F)(F)F)cc1O [Compound 8, (R)-2-(3-((6-(2-Hydroxy-4-(trifluoromethyl)phenyl)-5-methylpyridazin-3-yl)amino)piperidin-1-yl)-1-(3-hydroxyazetidin-1-yl)ethan-1-one]
